Experimental data taken from US8455194B2, “Diagnostic methods” (Isis Innovation Limited, priority 2008, dated 2013).
Read-outs that look alike come from different tables or passages of the source.

Assays:
SLCO1B1 rs4149056 SNP = conditions: summary estimate with interval in brackets; cited from earlier work
[1] = cited from earlier work
[2] = Asian subjects compared with a White (Caucasian) control group; cited from earlier work
[3] = for Cumulative percentage with myopathy / Estimated cumulative myopathy risk: 80 mg simvastatin daily; for Estimated cumulative myopathy risk: life-table analysis
Description: After randomisation, follow-up of participants was scheduled to occur at 2, 4, 8 and 12 months, and then at 6-monthly intervals. Information was sought about any possible myocardial infarction, hospitalisation for angina, stroke, vascular procedure, pulmonary embolus, cancer or other serious adverse experience. In addition, any new unexplained muscle pain or weakness was explicitly sought and recorded. A blood sample was taken at each follow-up visit for central laboratory assay of CK and ALT.
Standard 1d.f. (trend) and 2 d.f. […] Haploview v4.0 release candidate 2^25 was used to estimate linkage disequilibrium and plot association results for genotyped SNPs. Haplotype frequencies and associated risks were estimated using tools in the haplo.stats (v1.3.1) package^26 in R (v2.6.1)^27. Physical positions refer to NCBI build-36 of the human genome, and alleles are expressed in the forward strand of the reference human genome (NCBI build-36). Ensembl version 46 and NCBI dbSNP build 127 and published reports^11,28,29 were used to classify SNPs as synonymous or non-synonymous and to identify their location within introns or exons.

[4] = Heart Protection Study (HPS): myopathy in participants allocated 40 mg simvastatin daily; format: in vivo, human
Procedure: (§1) Using DNA extracted from 19,856 (97%) participants, the rs4149056 and rs2306283 SNPs in SLCO1B1 were successfully genotyped in 16,664 participants classified as Caucasian. Effects of these genotypes on myopathy risk and on LDL-cholesterol reduction were then assessed.

LDL-cholesterol = assay: Heart Protection Study (HPS): LDL-cholesterol reduction on 40 mg simvastatin daily; format: in vivo, human; conditions: 4-6 weeks of 40 mg simvastatin daily
Procedure: as §1
Among 16,664 genotyped participants in HPS,^22 the rs4149056 and rs2306283 variants were not associated with significant differences in pre-treatment LDL-cholesterol levels. […] These 17,000 genotyped participants without myopathy also provide an alternative control population for the SEARCH cases, yielding an odds ratio of 4.7 (3.5-6.4) per rs4149056 C allele and a stronger p-value of 3×10^−28.

[5] = among 6031 participants allocated 80 mg simvastatin daily, average follow-up about 6 years
[6] = among 6033 participants allocated 20 mg simvastatin daily
[7] = among 10,269 participants allocated 40 mg simvastatin daily, 5 years average follow-up

In the case of `CC(C)n1c(/C=C/C(O)CC(O)CC(=O)O)c(-c2ccc(F)cc2)c2ccccc21` (stereo not drawn) [Fluvastatin (acid), Fluvastatin], the “% higher AUC per C allele among studies of this statin” value (SLCO1B1 rs4149056 SNP) is listed as 10 (−9, 34) %.

For `O=C(O)C[C@H](O)C[C@H](O)/C=C/c1c(C2CC2)nc2ccccc2c1-c1ccc(F)cc1` [Pitavastatin (acid), Pitavastatin], the “% higher AUC per C allele among studies of this statin” value (SLCO1B1 rs4149056 SNP) is given as 37 (10, 71) %.

In the case of `CC[C@H](C)C(=O)O[C@H]1C[C@H](O)C=C2C=C[C@H](C)[C@H](CC[C@@H](O)C[C@@H](O)CC(=O)O)[C@H]21` [Pravastatin (acid), Pravastatin], the “% higher AUC per C allele among studies of this statin” value (SLCO1B1 rs4149056 SNP) is listed as 35 (17, 56) %.

In the case of `CC(C)c1nc(N(C)S(C)(=O)=O)nc(-c2ccc(F)cc2)c1/C=C/[C@@H](O)C[C@@H](O)CC(=O)O` [Rosuvastatin (acid), Rosuvastatin], the “% higher AUC per C allele among studies of this statin” value (SLCO1B1 rs4149056 SNP) is given as 31 (15, 42) %, the “Increase in AUC of rosuvastatin” value ([1]; rosuvastatin combined with cyclosporine) is given as 7-11 times and the “Elevation in median exposure of rosuvastatin” value [2] is given as ~2 fold.

In the case of `CCC(C)(C)C(=O)O[C@H]1C[C@@H](C)C=C2C=C[C@H](C)[C@H](CC[C@@H](O)C[C@@H](O)CC(=O)O)[C@H]21` [Simvastatin acid], the “% higher AUC per C allele among studies of this statin” value (SLCO1B1 rs4149056 SNP) is given as 61 (30, 100) %.

In the case of `Cc1ccc(C)c(OCCCC(C)(C)C(=O)O)c1` [gemfibrozil], the “Increase in area under the statin elimination curve (AUC)” value ([1]; gemfibrozil given concomitantly with several statins) is listed as 2-4 fold.

In the case of `CCC(C)(C)C(=O)O[C@H]1C[C@@H](C)C=C2C=C[C@H](C)[C@H](CC[C@@H]3C[C@@H](O)CC(=O)O3)[C@H]21` [simvastatin], the “Cumulative percentage with myopathy” value ([3]; all genotypes, Year 1) is reported as 0.91%, the “Cumulative percentage with myopathy” value ([3]; all genotypes, Year 5) is reported as 1.56% and the “Estimated cumulative myopathy risk” value ([3]; rs4149056 CC homozygotes) is reported as 18%. For the same compound, the “Estimated cumulative myopathy risk” value ([3]; rs4149056 CT genotype) was “about 3%”, the “Estimated cumulative myopathy risk” value ([3]; rs4149056 TT homozygotes) was 0.6% and the “Cumulative percentage with myopathy” value ([3]; rs4149056 genotype CC, Year 1) was 15.25%. The “Cumulative percentage with myopathy” value ([3]; rs4149056 genotype CC, Year 5) was 18.55%, the “Cumulative percentage with myopathy” value ([3]; rs4149056 genotype CT, Year 1) was 1.38% and the “Cumulative percentage with myopathy” value ([3]; rs4149056 genotype CT, Year 5) was 2.83%. The “Cumulative percentage with myopathy” value ([3]; rs4149056 genotype TT, Year 1) was 0.34%, the “Cumulative percentage with myopathy” value ([3]; rs4149056 genotype TT, Year 5) was 0.63% and the “Number of definite myopathy cases” value [3, 5] was 49. The “Number of incipient myopathy cases” value [3, 5] was 49, the “Number of definite myopathy cases” value [3, 6] was 2 and the “Number of incipient myopathy cases” value [3, 6] was 6. The “Number of definite myopathy cases” value [4, 7] was 10, the “Number of incipient myopathy cases” value [4, 7] was 14 and the “Number of myopathy cases (definite plus incipient)” value [4, 7] was 24. For the same compound, the “Number of definite or incipient myopathy cases while taking statin” value ([4]; participants taking their allocated 40 mg simvastatin daily) was 23, the “Average reduction in LDL-cholesterol” value (LDL-cholesterol; 16,664 genotyped participants, SE 0.12) was 40.57% and the “Larger LDL-cholesterol reduction per rs2306283 G allele” value (LDL-cholesterol; both variants considered together, SE 0.18) was 0.62%. The “Smaller LDL-cholesterol reduction per rs4149056 C allele” value (LDL-cholesterol; both variants considered together, SE 0.25) was 1.28%.
